# Molecular target: T1, JAK3 (Homo sapiens, UniProt P52333)
# T1 construct: endogenous in cells; host or cells: mixed Molt4/Ramos lysate (1:2)
# T1 sequence (P52333 1-1124): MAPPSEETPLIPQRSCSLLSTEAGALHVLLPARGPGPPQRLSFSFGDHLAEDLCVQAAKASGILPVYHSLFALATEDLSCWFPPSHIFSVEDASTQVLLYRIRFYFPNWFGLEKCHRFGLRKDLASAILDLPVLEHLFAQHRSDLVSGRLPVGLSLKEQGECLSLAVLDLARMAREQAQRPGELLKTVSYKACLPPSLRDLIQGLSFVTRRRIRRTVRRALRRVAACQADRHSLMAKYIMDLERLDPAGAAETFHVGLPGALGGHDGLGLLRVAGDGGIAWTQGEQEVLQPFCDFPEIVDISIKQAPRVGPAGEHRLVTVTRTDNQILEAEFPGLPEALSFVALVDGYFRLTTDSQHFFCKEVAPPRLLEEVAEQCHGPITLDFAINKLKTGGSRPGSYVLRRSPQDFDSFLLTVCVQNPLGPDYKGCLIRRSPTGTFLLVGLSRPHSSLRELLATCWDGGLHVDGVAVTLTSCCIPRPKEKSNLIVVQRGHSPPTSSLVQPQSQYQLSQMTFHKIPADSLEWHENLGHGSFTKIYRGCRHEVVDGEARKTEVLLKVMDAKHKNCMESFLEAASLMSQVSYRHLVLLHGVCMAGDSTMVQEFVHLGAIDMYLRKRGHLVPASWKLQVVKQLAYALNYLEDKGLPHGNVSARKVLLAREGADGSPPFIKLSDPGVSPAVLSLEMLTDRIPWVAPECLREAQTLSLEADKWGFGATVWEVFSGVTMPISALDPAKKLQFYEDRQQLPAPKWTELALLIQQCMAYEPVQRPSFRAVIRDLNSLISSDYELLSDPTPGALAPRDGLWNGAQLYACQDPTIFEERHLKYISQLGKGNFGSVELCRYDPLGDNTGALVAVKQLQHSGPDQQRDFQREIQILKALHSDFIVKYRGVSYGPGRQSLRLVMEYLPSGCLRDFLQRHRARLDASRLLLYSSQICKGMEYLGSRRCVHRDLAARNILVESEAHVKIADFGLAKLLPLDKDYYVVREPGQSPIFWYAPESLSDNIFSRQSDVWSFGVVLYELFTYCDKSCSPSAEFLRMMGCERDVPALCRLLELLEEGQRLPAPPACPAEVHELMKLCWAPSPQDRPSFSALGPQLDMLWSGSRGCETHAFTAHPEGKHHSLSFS
# Experiment: Kinobeads assay, JAK3
# Assay type: binding
# Settings: mixed Molt4/Ramos lysate, read-out: Inhibition values (IC50) JAK3
# Outline: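 Competition binding in mixed Molt4/Ramos cell lysate (1:2, 10 mg/mL protein) with Kinobeads carrying immobilized aminopyrido-pyrimidine ligand, 3 h in cold room; 9-step 1:3 compound dilution series from 5 mM DMSO stock. Bead-bound JAK2/JAK3 eluted and quantified by antibody dot blot with infrared detection; IC50 from dose-response curves.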
row,IC50 [nM],SMILES
1,< 100,"Cn1cc(Nc2ncc3cnn(Cc4cc(-c5cnn(C)c5)cc(F)c4F)c3n2)cn1 [Example 126, 1-(2,3-difluoro-5-(1-methyl-1H-pyrazol-4-yl)benzyl)-N-(1-methyl-1H-pyrazol-4-yl)-1H-pyrazolo[3,4-d]pyrimidin-6-amine]"
2,< 100,"Cn1cc(Nc2ncc3cnn(Cc4cccc(N5CCOCC5)c4Cl)c3n2)cn1 [Example 103, 1-(2-chloro-3-morpholinobenzyl)-N-(1-methyl-1H-pyrazol-4-yl)-1H-pyrazolo[3,4-d]pyrimidin-6-amine]"
3,< 100,"Cn1cc(Nc2ncc3cnn(Cc4cccc(NC5COC5)c4)c3n2)cn1 [Example 114, N-(1-methyl-1H-pyrazol-4-yl)-1-(3-(oxetan-3-ylamino)benzyl)-1H-pyrazolo[3,4-d]pyrimidin-6-amine]"
4,100 to 1000,"Cn1cc(Nc2ncc3cnn(Cc4cccc(N5CCCCC5)c4)c3n2)cn1 [Example 8, N-(1-Methyl-1H-pyrazol-4-yl)-1-(3-(piperidin-1-yl)benzyl)-1H-pyrazolo[3,4-d]pyrimidin-6-amine]"
5,< 100,Cn1cc(Nc2ncc3cnn(Cc4cccc(N5CC6CCC(C5)O6)c4)c3n2)cn1 [Example 26]
6,100 to 1000,"CC(C)n1cc(-c2cccc(Cn3ncc4cnc(Nc5cnn(C)c5)nc43)c2)cn1 [Example 117, 1-(3-(1-isopropyl-1H-pyrazol-4-yl)benzyl)-N-(1-methyl-1H-pyrazol-4-yl)-1H-pyrazolo[3,4-d]pyrimidin-6-amine]"
7,< 100,"CNCCCn1cc(Nc2ncc3cnn(Cc4cc(F)cc(N5CCOCC5=O)c4)c3n2)cn1 [Example 99, 4-(3-fluoro-5-((6-((1-(3-(methylamino)propyl)-1H-pyrazol-4-yl)amino)-1H-pyrazolo[3,4-d]pyrimidin-1-yl)methyl)phenyl)morpholin-3-one]"
8,< 100,"CCCn1cc(-c2cccc(Cn3ncc4cnc(Nc5cnn(C)c5)nc43)c2)cn1 [Example 119, N-(1-methyl-1H-pyrazol-4-yl)-1-(3-(1-propyl-1H-pyrazol-4-yl)benzyl)-1H-pyrazolo[3,4-d]pyrimidin-6-amine]"
9,< 100,"Cc1c(Cn2ncc3cnc(Nc4cnn(C)c4)nc32)cccc1N1CCOCC1 [Example 11, N-(1-Methyl-1H-pyrazol-4-yl)-1-(2-methyl-3-morpholinobenzyl)-1H-pyrazolo[3,4-d]pyrimidin-6-amine]"
10,< 100,"OCCCn1cc(Nc2ncc3cnn(Cc4cccc(N5CCOCC5)c4)c3n2)cn1 [Example 18, 3-(4-((1-(3-Morpholinobenzyl)-1H-pyrazolo[3,4-d]pyrimidin-6-yl)amino)-1H-pyrazol-1-yl)propan-1-ol]"
11,< 100,"Cn1cc(Nc2ncc3cnn(Cc4cccc(N5CCNCC5=O)c4)c3n2)cn1 [Example 36, 1-(3-((6-((1-Methyl-1H-pyrazol-4-yl)amino)-1H-pyrazolo[3,4-d]pyrimidin-1-yl)methyl)phenyl)piperazin-2-one]"
12,< 100,"Cn1cc(Nc2ncc3cnn(Cc4cc(F)cc(N5CCNCC5)c4F)c3n2)cn1 [Example 95, 1-(2,5-difluoro-3-(piperazin-1-yl)benzyl)-N-(1-methyl-1H-pyrazol-4-yl)-1H-pyrazolo[3,4-d]pyrimidin-6-amine]"
13,< 100,"O=C1CCCN1CCCn1cc(Nc2ncc3cnn(Cc4cccc(N5CCOCC5)c4)c3n2)cn1 [Example 30, 1-(3-(4-((1-(3-Morpholinobenzyl)-1H-pyrazolo[3,4-d]pyrimidin-6-yl)amino)-1H-pyrazol-1-yl)propyl)pyrrolidin-2-one]"
14,100 to 1000,"Cn1cc(Nc2ncc3cnn(Cc4cccc(N5CCC6(COC6)C5)c4)c3n2)cn1 [Example 104, 1-(3-(2-oxa-6-azaspiro[3.4]octan-6-yl)benzyl)-N-(1-methyl-1H-pyrazol-4-yl)-1H-pyrazolo[3,4-d]pyrimidin-6-amine]"
15,< 100,"Cn1cc(Nc2ncc3cnn(Cc4cc(F)cc(N5CC6(COC6)C5)c4)c3n2)cn1 [Example 90, 1-(3-fluoro-5-(2-oxa-6-azaspiro[3.3]heptan-6-yl)benzyl)-N-(1-methyl-1H-pyrazol-4-yl)-1H-pyrazolo[3,4-d]pyrimidin-6-amine]"
16,< 100,"Cn1cc(Nc2ncc3cnn(Cc4cccc(N5CC6(COC6)C5)c4F)c3n2)cn1 [Example 91, 1-(2-fluoro-3-(2-oxa-6-azaspiro[3.3]heptan-6-yl)benzyl)-N-(1-methyl-1H-pyrazol-4-yl)-1H-pyrazolo[3,4-d]pyrimidin-6-amine]"
17,< 100,"NCCCn1cc(Nc2ncc3cnn(Cc4cccc(N5CCOCC5)c4)c3n2)cn1 [Example 34, N-(1-(3-Aminopropyl)-1H-pyrazol-4-yl)-1-(3-morpholinobenzyl)-1H-pyrazolo[3,4-d]pyrimidin-6-amine]"
18,< 100,"CN1CCN(c2cccc(Cn3ncc4cnc(Nc5cnn(C)c5)nc43)c2)CC1 [Example 10, N-(1-Methyl-1H-pyrazol-4-yl)-1-(3-(4-methylpiperazin-1-yl)benzyl)-1H-pyrazolo[3,4-d]pyrimidin-6-amine]"
19,< 100,"Cn1cc(Nc2ncc3cnn(Cc4cccc(N5CCOCC5=O)c4)c3n2)cn1 [Example 27, 4-(3-((6-((1-Methyl-1H-pyrazol-4-yl)amino)-1H-pyrazolo[3,4-d]pyrimidin-1-yl)methyl)phenyl)morpholin-3-one]"
20,< 100,"CNC(=O)Cn1cc(Nc2ncc3cnn(Cc4cccc(N5CCOCC5)c4)c3n2)cn1 [Example 12, N-Methyl-2-(4-((1-(3-morpholinobenzyl)-1H-pyrazolo[3,4-d]pyrimidin-6-yl)amino)-1H-pyrazol-1-yl)acetamide]"
21,100 to 1000,"Cn1cc(Nc2ncc3cnn(Cc4cc(N5CCOCC5)cc(F)c4F)c3n2)cn1 [Example 37, 1-(2,3-Difluoro-5-morpholinobenzyl)-N-(1-methyl-1H-pyrazol-4-yl)-1H-pyrazolo[3,4-d]pyrimidin-6-amine]"
22,< 100,"CN(C)CCCn1cc(Nc2ncc3cnn(Cc4cccc(N5CCOCC5)c4)c3n2)cn1 [Example 4, N-(1-(3-(Dimethylamino)propyl)-1H-pyrazol-4-yl)-1-(3-morpholinobenzyl)-1H-pyrazolo[3,4-d]pyrimidin-6-amine]"
